Results taken from patent publication US20100048462A1, “TRUNCATED PTH PEPTIDES WITH A CYCLIC CONFORMATION” (Zealand Pharma A/S, priority 2006, published 2010).
Bridge positions count the residues as written; N and C are the ends. Square brackets hold non-standard residues; d marks the D form. Peptide text beside a SMILES is read from it. I, II: the chains in the order shown. hArg = N=C(N)NCCCC[C@H](N)C(=O)O; Ac5c = NC1(C(=O)O)CCCC1; Aib = CC(C)(N)C(=O)O

Target: T1, PTH receptor 1 (Mus musculus, UniProt P41593)
T1 construct: host or cells: MC3T3-E1 subclone 4
T1 sequence (P41593 27-591): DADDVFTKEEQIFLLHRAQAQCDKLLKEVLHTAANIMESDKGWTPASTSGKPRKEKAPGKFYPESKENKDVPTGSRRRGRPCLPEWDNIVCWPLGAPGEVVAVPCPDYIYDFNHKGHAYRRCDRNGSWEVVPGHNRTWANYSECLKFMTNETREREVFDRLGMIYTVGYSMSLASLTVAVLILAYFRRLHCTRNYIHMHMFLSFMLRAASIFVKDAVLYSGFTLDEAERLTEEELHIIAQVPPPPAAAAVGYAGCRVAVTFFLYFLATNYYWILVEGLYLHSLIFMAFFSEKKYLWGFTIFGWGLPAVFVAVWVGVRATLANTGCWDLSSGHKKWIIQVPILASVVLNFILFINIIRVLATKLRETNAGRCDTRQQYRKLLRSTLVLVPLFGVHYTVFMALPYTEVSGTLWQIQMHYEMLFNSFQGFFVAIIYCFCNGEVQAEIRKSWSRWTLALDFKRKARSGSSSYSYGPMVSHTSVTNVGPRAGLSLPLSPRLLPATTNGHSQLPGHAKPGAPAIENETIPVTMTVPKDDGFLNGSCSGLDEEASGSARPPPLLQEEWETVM
Test: MC3T3-E1 cAMP efficacy assay
Format: cell-based, murine
Conditions: MC3T3-E1 cells
Description: MC3T3-E1 cells were seeded at 10,000 cells/well in 96-microtiter plates and grown overnight before the efficacy assays. On the day of analysis the growth medium was carefully removed by suction. Cells were washed once with 200 μl TB/0.1% […]. The buffer was replaced with 100 μl reaction mixture (±test peptide, +100 μM IBMX) and incubated at 37° C. for 13 min. The reaction was stopped by addition of 25 μl of ice-cold 0.5 M HCl. Cells were in the following incubated on ice for 60 min. 75 μl acetate-buffer were added to each well in a 96-well cAMP FlashPlate. […] FlashPlates were incubated overnight at 4° C., emptied by suction and counted in a TopCounter.
Determinations were performed in triplicates at all doses. Standards were included as single determinations, duplicates or triplicates in each experiment, preferentially on each plate.
Efficacy was evaluated in the concentration range from […].
Concentration-dependent cAMP responses were imported into GraphPad Prism vers. 4, transformed and plotted. Curves were fitted with a function for sigmoidal dose response curve non-linear fit Y=Bottom+(Top-Bottom)/(1+10̂((LogEC50-X))) where X is the logarithm of concentration and Y is the response. Y starts at Bottom and goes to Top with a sigmoid shape. pEC50 and the maximally inducible concentration of cAMP were evaluated. Overall statistical differences were analyzed using one-way ANOVA. Post-hoc comparisons were made by the use of Fisher's Least Significance Test. Results were considered significant, when p was lower than 0.05.

CC[C@H](C)[C@H](NC(=O)[C@H](CCC(=O)O)NC(=O)C(C)(C)NC(=O)[C@@H](NC(=O)C1(N)CCCC1)C(C)C)C(=O)N[C@@H](CCC(N)=O)C(=O)N[C@@H](CC(C)C)C(=O)N[C@@H](CCSC)C(=O)N[C@@H](Cc1c[nH]cn1)C(=O)N[C@@H](CCC(N)=O)C(=O)N[C@@H](CCCCNC(=N)N)C(=O)N[C@@H](C)C(=O)N[C@H]1CCCCNC(=O)C[C@@H](C(N)=O)NC(=O)[C@H](CC(C)C)NC(=O)[C@H](Cc2c[nH]c3ccccc23)NC(=O)[C@@H](NC(=O)[C@H](C)NC(=O)[C@H](CCCCNC(=N)N)NC(=O)[C@H](CCC(N)=O)NC(=O)[C@H](Cc2c[nH]cn2)NC(=O)[C@H](CCSC)NC(=O)[C@H](CC(C)C)NC(=O)[C@H](CCC(N)=O)NC(=O)[C@@H](NC(=O)[C@H](CCC(=O)O)NC(=O)C(C)(C)NC(=O)[C@@H](NC(=O)C2(N)CCCC2)C(C)C)[C@@H](C)CC)CCCCNC(=O)C[C@@H](C(N)=O)NC(=O)[C@H](CC(C)C)NC(=O)[C@H](Cc2c[nH]c3ccccc23)NC1=O [SEQ ID NO: 33, (H-Ac5c-Val-Aib-Glu-Ile-Gln-Leu-Met-His-Gln-Har-Ala-Lys( )-Trp-Leu-Asp( )-NH2)2] (I: H-[Ac5c]V[Aib]EIQLMHQ[hArg]AKWLD-NH2 / II: H-[Ac5c]V[Aib]EIQLMHQ[hArg]AKWLD-NH2; amide I:13-II:16, I:16-II:13 (inferred))
agonist strength relative to SEQ ID NO: 30 (cAMP): eight-fold stronger agonist
Emax ± SEM [pmol/well] (maximally inducible cAMP): 5.0 ± 0.3 pmol/well
